How the values were obtained:
[1] = tested on: SCNN1A gene expression in BEAS-2B cells; experiment: TGF-β-induced suppression of dexamethasone-induced SCNN1A gene expression in BEAS-2B cells; format: cell-based; details: BEAS-2B, agent 10 μM
Experimental: The primary assay for the activity of the novel CK1δ/ε inhibitors is the modulation of gene expression in the airway epithelial cell line, the BEAS-2B cells. The assay is conducted under several conditions. Generally, TGF-β or TNF-α is used to elicit fibrogenic or inflammatory genes, respectively. The agents are added at a concentration of 10 μM, or at the indicated concentrations for a period of 30 min prior to the addition of TGF-β/TNF-α which are incubated for a further 20 hours before the addition, in some experiments of the glucocorticoid, dexamethasone (Dex, 30 nM) for the final 4 hours of the experiment, prior to harvest of cellular RNA to measure by RT-qPCR the levels of mRNA of marker genes for inflammation and fibrogenesis. The inhaled corticosteroid (ICS), budesonide is also used in some experiments. Furthermore, the supernatants are harvested at the end of the incubation periods in selected experiments to measure the levels of CSF-2 or IL-8 by ELISA as described in (Tran et al. (2005) British Journal of Pharmacology, 145, 123-131). Prior to experimentation, BEAS-2B and A549 cells were incubated in serum-free DMEM containing 0.25% bovine serum albumin (BSA) and insulin-transferrin-selenium—containing supplement (Monomed A; CSL, Parkville, Melbourne, Australia). Where indicated, cells were treated with one of the series of synthesised compounds (0.3-10 μM) prior to exposure to 100 pM TGF-β1 (R&D Systems, Minneapolis, Minn.) or 300 pM bFGF (Promega, Madison, Wis.). Total RNA was extracted from cultured cells using illustra RNAspin Mini RNA Isolation Kit (GE Healthcare). RNA extracts were reverse-transcribed into cDNA using High-Capacity RNA-to-cDNA Kit (Applied Biosystems). Real-time PCR was then performed using a QuantStudio 6 Flex Real-Time PCR System using iTaq Universal SYBR green supermix and the following thermal protocol: 50° C. (2 min), 95° C. (10 min), then 40 cycles of 95° C. (15 sec), 60° C. (1 min). The threshold cycle (CT) values determined for target genes were normalized against those obtained for 18S ribosomal RNA (18S rRNA), which was included as internal control. The generation of specific PCR products was confirmed by dissociation curve analysis. In FIG. 1, the effects of SS9-010 are contrasted with those of PF670462 in an assay in BEAS-B cells measuring the induction of the glucocorticoid-regulated gene, SCNN1A encoding the protein epithelial sodium channel alpha subunit. Serum-starved BEAS-2B cells were treated with CK1δ/ε inhibitor PF670462 (1, 3, 10 μM) or SS9-010 (1, 3, 10 μM) 30 min prior to TGF-β1 (40 pM) for 24 hours, then stimulated with dexamethasone (30 nM) for 4 hours. RNA was then extracted and analyzed by RT-qPCR. Data are presented as mean±SEM for n=4 independent experiments. The potency of PF670462 and SS9-010 were similar.

[2] = tested on: PAI-1 gene expression in BEAS-2B cells; experiment: TNF-α and TGF-β induced PAI-1 gene expression in BEAS-2B cells (RT-qPCR); format: cell-based; details: agent 10 μM
Experimental: The primary assay for the activity of the novel CK1δ/ε inhibitors is the modulation of gene expression in the airway epithelial cell line, the BEAS-2B cells. The assay is conducted under several conditions. Generally, TGF-β or TNF-α is used to elicit fibrogenic or inflammatory genes, respectively. The agents are added at a concentration of 10 μM, or at the indicated concentrations for a period of 30 min prior to the addition of TGF-β/TNF-α which are incubated for a further 20 hours before the addition, in some experiments of the glucocorticoid, dexamethasone (Dex, 30 nM) for the final 4 hours of the experiment, prior to harvest of cellular RNA to measure by RT-qPCR the levels of mRNA of marker genes for inflammation and fibrogenesis. The inhaled corticosteroid (ICS), budesonide is also used in some experiments. Furthermore, the supernatants are harvested at the end of the incubation periods in selected experiments to measure the levels of CSF-2 or IL-8 by ELISA as described in (Tran et al. (2005) British Journal of Pharmacology, 145, 123-131). Prior to experimentation, BEAS-2B and A549 cells were incubated in serum-free DMEM containing 0.25% bovine serum albumin (BSA) and insulin-transferrin-selenium—containing supplement (Monomed A; CSL, Parkville, Melbourne, Australia). Where indicated, cells were treated with one of the series of synthesised compounds (0.3-10 μM) prior to exposure to 100 pM TGF-β1 (R&D Systems, Minneapolis, Minn.) or 300 pM bFGF (Promega, Madison, Wis.). Total RNA was extracted from cultured cells using illustra RNAspin Mini RNA Isolation Kit (GE Healthcare). RNA extracts were reverse-transcribed into cDNA using High-Capacity RNA-to-cDNA Kit (Applied Biosystems). Real-time PCR was then performed using a QuantStudio 6 Flex Real-Time PCR System using iTaq Universal SYBR green supermix and the following thermal protocol: 50° C. (2 min), 95° C. (10 min), then 40 cycles of 95° C. (15 sec), 60° C. (1 min). The threshold cycle (CT) values determined for target genes were normalized against those obtained for 18S ribosomal RNA (18S rRNA), which was included as internal control. The generation of specific PCR products was confirmed by dissociation curve analysis. In the same experiment as described in FIG. 1, the expression of the fibrogen plasminogen activator inhibitor-1 was measured (see FIG. 2). The levels of this gene are increased by both TGF-β and by Dex and they synergise when added together. The CK1 inhibitors concentration-dependently reduce the effects of each of the stimuli and further reduce baseline expression. Their potency in this effect is similar, regardless of the condition being considered. In a separate experiment BEAS-2B cells were exposed to TNF-α with(out) 30 min pretreatment with either SS9-010 or PF670462 (1-10 μM). RNA was then extracted and analyzed by RT-qPCR. Each agent inhibited TNFa stimulated PAI-1 expression with similar potency and maxima (see FIG. 3). Data are presented as mean±SD for n=1 (three technical replicates).

[3] = tested on: Col 1A gene expression in BEAS-2B cells; experiment: TNFα and TGFβ induced Col 1A gene expression in BEAS-2B cells (RT-qPCR); format: cell-based; details: agent 10 μM
Experimental: The primary assay for the activity of the novel CK1δ/ε inhibitors is the modulation of gene expression in the airway epithelial cell line, the BEAS-2B cells. The assay is conducted under several conditions. Generally, TGF-β or TNF-α is used to elicit fibrogenic or inflammatory genes, respectively. The agents are added at a concentration of 10 μM, or at the indicated concentrations for a period of 30 min prior to the addition of TGF-β/TNF-α which are incubated for a further 20 hours before the addition, in some experiments of the glucocorticoid, dexamethasone (Dex, 30 nM) for the final 4 hours of the experiment, prior to harvest of cellular RNA to measure by RT-qPCR the levels of mRNA of marker genes for inflammation and fibrogenesis. The inhaled corticosteroid (ICS), budesonide is also used in some experiments. Furthermore, the supernatants are harvested at the end of the incubation periods in selected experiments to measure the levels of CSF-2 or IL-8 by ELISA as described in (Tran et al. (2005) British Journal of Pharmacology, 145, 123-131).
Prior to experimentation, BEAS-2B and A549 cells were incubated in serum-free DMEM containing 0.25% bovine serum albumin (BSA) and insulin-transferrin-selenium—containing supplement (Monomed A; CSL, Parkville, Melbourne, Australia). Where indicated, cells were treated with one of the series of synthesised compounds (0.3-10 μM) prior to exposure to 100 pM TGF-β1 (R&D Systems, Minneapolis, Minn.) or 300 pM bFGF (Promega, Madison, Wis.).
Total RNA was extracted from cultured cells using illustra RNAspin Mini RNA Isolation Kit (GE Healthcare). RNA extracts were reverse-transcribed into cDNA using High-Capacity RNA-to-cDNA Kit (Applied Biosystems). Real-time PCR was then performed using a QuantStudio 6 Flex Real-Time PCR System using iTaq Universal SYBR green supermix and the following thermal protocol: 50° C. (2 min), 95° C. (10 min), then 40 cycles of 95° C. (15 sec), 60° C. (1 min). The threshold cycle (CT) values determined for target genes were normalized against those obtained for 18S ribosomal RNA (18S rRNA), which was included as internal control. The generation of specific PCR products was confirmed by dissociation curve analysis.

SMILES | melting point [°C] | SCNN1A mRNA level, Dex [1] [fold control] | SCNN1A mRNA level, TGF-β [1] [fold control] | SCNN1A mRNA level, TGF-β/Dex [1] [fold control] | SCNN1A mRNA level, vehicle (no stimulus) [1] [fold control] | PAI-1 mRNA level, TGF-β [2] | PAI-1 mRNA level, TNF-α (n = 2) [2] [fold control] | PAI-1 mRNA level, vehicle (no stimulus) [2] [fold control] | Col1A mRNA level, TGF-β [3] | Col1A mRNA level, TNF-α (n = 2) [3] [fold control] | Col1A mRNA level, vehicle (no stimulus) [3] [fold control]
OCCNc1nccc(-c2c(-c3ccc(F)cc3)ncn2C2CCCCC2)n1 [compound 84, 2-((4-(1-Cyclohexyl-4-(4-fluorophenyl)-1H-imidazol-5-yl)pyrimidin-2-yl)amino)ethan-1-ol] | 180 to 184 |  |  |  |  |  |  |  |  |  | 
CCCCN1CCC(n2cnc(-c3ccc(F)cc3)c2-c2ccnc(N)n2)CC1 [SS9-074, 4-(1-(1-Butylpiperidin-4-yl)-4-(4-fluorophenyl)-1H-imidazol-5-yl)pyrimidin-2-amine] |  | 3.46 | 0.36 | 3.27 | 1.22 | 12.3 (n = 2) fold control | 1.83 | 0.68 | 12.2 (n = 2) fold control | 2.14 | 1.61
C#CCNc1nccc(-c2c(-c3ccc(F)cc3)ncn2C2CCCCC2)n1 [compound 83, 4-(1-Cyclohexyl-4-(4-fluorophenyl)-1H-imidazol-5-yl)-N-(prop-2-yn-1-yl)pyrimidin-2-amine] | 147 to 155 |  |  |  |  |  |  |  |  |  | 
CC(C)(C)n1cnc(-c2ccc(F)cc2)c1-c1ccnc(N)n1 [ZH9-190, 4-(1-(Tert-butyl)-4-(4-fluorophenyl)-1H-imidazol-5-yl)pyrimidin-2-amine] | 189 to 197 |  |  |  |  |  |  |  |  |  | 
Nc1nccc(-c2c(-c3ccc(F)cc3)ncn2C23CC4CC(CC(C4)C2)C3)n1 [SS8-122, 4-(Adamantan-1-yl-4-(4-fluorophenyl)-1H-imidazol-5-yl)pyrimidin-2-amine] |  | 4.26 | 0.15 | 1.67 | 0.86 |  | 2.76 | 1.45 | 8.07 fold control | 1.56 | 1.39
Fc1ccc(-c2ncn(C3CCCCC3)c2-c2ccnc(NC3CCC3)n2)cc1 [compound 81, N-Cyclobutyl-4-(1-cyclohexyl-4-(4-fluorophenyl)-1H-imidazol-5-yl)pyrimidin-2-amine] | 185 to 189 |  |  |  |  |  |  |  |  |  | 
Cc1ccc(-c2ncn(C3CCCCC3)c2-c2ccnc(N)n2)cc1 [SS8-186] |  | 3.06 ± 0.34 | 0.42 ± 0.06 | 1.84 ± 0.25 | 1.36 ± 0.17 | 6.58 ± 1.04 fold control | 1.54 | 0.75 ± 0.07 | 3.14 ± 0.20 fold control | 0.56 | 0.50 ± 0.12
Nc1nccc(-c2c(-c3ccc(F)cc3)ncn2C2CCN(CCCCc3ccccc3)CC2)n1 [SS8-070, 4-(4-(4-Fluorophenyl)-1-[1-(4-phenylbutyl)piperidin-4-yl)-1H-imidazol-5-yl)pyrimidin-2-amine] |  | 3.79 | 0.42 | 2.15 | 1.63 | 6.57 (n = 2) fold control | 0.79 | 0.41 | 8.52 (n = 2) fold control | 0.88 | 1.17

Continued, in another order:

melting point [°C] | SMILES | SCNN1A mRNA level, Dex [1] [fold control] | SCNN1A mRNA level, TGF-β [1] [fold control] | SCNN1A mRNA level, TGF-β/Dex [1] [fold control] | SCNN1A mRNA level, vehicle (no stimulus) [1] [fold control] | PAI-1 mRNA level, TGF-β [2] | PAI-1 mRNA level, TNF-α (n = 2) [2] [fold control] | PAI-1 mRNA level, vehicle (no stimulus) [2] [fold control] | Col1A mRNA level, TGF-β [3] | Col1A mRNA level, TNF-α (n = 2) [3] [fold control] | Col1A mRNA level, vehicle (no stimulus) [3] [fold control]
204 to 212 | CCn1cnc(-c2ccc(F)cc2)c1-c1ccnc(N)n1 [ZH-6, 4-(1-(Ethyl)-4-(4-fluorophenyl)-1H-imidazol-5-yl)pyrimidin-2-amine] |  |  |  |  |  |  |  |  |  | 
229 to 231 | Nc1nccc(-c2c(-c3ccc(F)cc3)ncn2C2CCC2)n1 [ZH-62, 4-(1-Cyclobutyl-4-(4-fluorophenyl)-1H-imidazol-5-yl)pyrimidin-2-amine] |  |  |  |  |  |  |  |  |  | 
180 to 199 | Nc1nccc(-c2c(-c3ccc(F)cc3)ncn2CC2CCCCC2)n1 [ZH-138, 4-(1-(Cyclohexylmethyl)-4-(4-fluorophenyl)-1H-imidazol-5-yl)pyrimidin-2-amine] |  |  |  |  |  |  |  |  |  | 

From patent publication US20200079757A1, “COMPOUNDS FOR THE TREATMENT OF RESPIRATORY DISEASES” (THE UNIVERSITY OF MELBOURNE, priority 2017, published 2020)
